In BigSolDB 2.1:

O=C(O)c1c(O)cccc1O
solubility (mole fraction)
Settings | 278.15 K | 283.15 K | 288.15 K | 293.15 K | 298.15 K | 303.15 K | 308.15 K | 313.15 K | 318.15 K
in ethanol | 0.221 | 0.234 | 0.245 | 0.258 | 0.273 | 0.286 | 0.294 | 0.306 | 0.318
in isopropanol | 0.225 | 0.24 | 0.254 | 0.268 | 0.28 | 0.292 | 0.303 | 0.315 | 0.323
in methanol | 0.2 | 0.214 | 0.227 | 0.247 | 0.261 | 0.276 | 0.284 | 0.3 | 0.314
in n-butanol | 0.189 | 0.202 | 0.216 | 0.23 | 0.245 | 0.26 | 0.275 | 0.29 | 0.306
